Reference: publication PMC9088798, “An Approach to Derive Functional Peptide Inhibitors of Transcription Factor Activity” (JACS Au, 2022)

Assays:
cJun [1] = target: T1, cJun (Homo sapiens, UniProt P05412); test: CD dimer exchange, competition for cJun; format: binding; details: A-FosW added to preformed HingeW/cJun heterodimer; total peptide 10 μM
T1 construct: The human cJun bZIP domain spans from Arg252 to Leu308; His-SUMO (N, cleaved yes); AS cap (two residues Ala-Ser) (N); GAP cap (three residues Gly-Ala-Pro) (C); made in house; host or cells: E. coli (pET21-His-SUMO plasmid)
T1 sequence (P05412 252-308): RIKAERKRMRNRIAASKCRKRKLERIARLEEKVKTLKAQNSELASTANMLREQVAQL
Experimental: Figure 5 TBS winner peptide HingeW binds cJun preferentially over A-FosW. CD spectra (20 °C) show the binding of cJun to either (A) HingeW or (B) A-FosW. […] However, the effect is larger for HingeW, indicating a greater increase in peptide helicity. Similarly, the thermal denaturation of cJun bound to either (C) HingeW or (D) A-FosW is right-shifted from the average of the component peptide denaturation profiles. […]
Direct competition between HingeW and A-FosW for cJun binding was observed using CD dimer exchange experiments in which a solution containing one antagonist/cJun mixture was combined with the other antagonist to observe potential changes in α-helicity, as an indicator of a change in cJun dimerization partner. In this case, when HingeW was mixed with the preformed A-FosW/cJun heterodimer, a 17% increase in helicity was observed, as measured at 222 nm, relative to the average of the component signals (Figure 5E). […]
increased to the optimum 4 µM in subsequent passages. […] This allows the occurrence of library members to be monitored as winner sequences are selected for. […]

cJun [2] = target: T1, cJun; test: Isothermal titration calorimetry, binding to cJun; details: ITC, average of two independent experiments, one SD
Experimental: Isothermal Titration Calorimetry (ITC): Peptides were studied in an ITC buffer consisting of 10 mM potassium phosphate, 150 mM potassium fluoride and 5 mM TCEP at pH 7.4. Using a MicroCal VP-ITC instrument (Malvern), 10 µL injections of antagonist peptide (HingeW or A-FosW) at 10 µM were injected into the cell containing cJun at 1 µM.
MicroCal Origin software was used to record and analyse the heat change upon addition.
Control experiments involved the injection of the antagonist peptide sample into the cell containing ITC buffer alone to determine the heat of dilution which was subtracted. The resulting binding data were fit to a one site binding model to extract the enthalpy change of binding (ΔH) and the equilibrium binding constant (K D), from which the free energy change of binding (ΔG) and the entropy change of binding (ΔS) was calculated (41).
Thermodynamic parameters are presented as an average of two independent experiments with errors given as one standard deviation. […]

TRE DNA = test: CD control, interaction with TRE DNA; format: binding; details: peptide 50 µM, TRE DNA 5 µM, CD spectra 260-320 nm
Experimental: µM) alongside ampicillin, kanamycin and chloramphenicol to maintain the required plasmids, and IPTG (1 mM) to induce protein expression. The library transformants were […]
however a lower stringency is used initially before selection is increased in later steps.
Colonies from this first round of selection were pooled and serially grown in liquid culture at starting OD600 of 0.05 and grown at 37°C with shaking at 200 rpm until the OD600 […]
increased to the optimum 4 µM in subsequent passages. Bacteria containing the most effective functional antagonists were expected to produce higher levels of TRE-mDHFR which provides a growth advantage, and these will dominate the culture. At each passage step, a sample of the culture was plated on LB agar (supplemented with antibiotics to maintain plasmids) to select and sequence individual colonies, and a DNA pool was also sequenced. This allows the occurrence of library members to be monitored as winner sequences are selected for. Assay Validation experiments utilised a modified assay methodology whereby overnight cultures from glycerol stocks of the Control Strains (Figure S6) were diluted to OD600=0.5 and 50 µL was plated on a selective M9 minimal […]
Circular Dichroism (CD): An Applied Photophysics Chirascan was used for CD measurements, with a 200 µL sample in a 1 mm path length CD cell. […]

dimer exchange on mixing with preformed heterodimer (cJun [1]): no dimer exchange had occurred | Kd (cJun [2]; 10 µM antagonist peptide injected into 1 µM cJun, 10 mM potassium phosphate, 150 mM KF, 5 mM TCEP, pH 7.4, one site model): 88.3 ± 17.6 nM | TΔS (cJun [2]): −112.6 ± 4.1 kJ mol^–1 | ΔH (cJun [2]): −152.6 ± 4.1 kJ mol^–1 | N (binding stoichiometry) (cJun [2]; single-site binding model): 1.04 ± 0.08
Sequence: LEQRAEELARENEELEKEAEELEQELDELQAEIEQLEERNYALRKEIEDLQKQLEKL [A-FosW, N-terminal AS and C-terminal GAP caps, 6xHis-tagged]
interaction with TRE DNA (TRE DNA): no interaction with DNA
